Assays:
Vasopressin V2 receptor = Vasopressin V2 receptor (Homo sapiens, UniProt P30518)
Histamine H2 receptor = Histamine H2 receptor (Homo sapiens, UniProt P25021); assay type: functional, cell-based
[1] = biological target: cGMP-inhibited 3',5'-cyclic phosphodiesterase 3A (Homo sapiens, UniProt Q14432); assay type: functional
[2] = biological target: Neuronal acetylcholine receptor subunit alpha-4 (Homo sapiens, UniProt P43681)
Histamine H1 receptor = Histamine H1 receptor (Homo sapiens, UniProt P35367)
[3] = biological target: Glutamate receptor ionotropic, NMDA 1 (Rattus norvegicus, UniProt P35439)
[4] = biological target: 5-hydroxytryptamine receptor 2B (Homo sapiens, UniProt P41595); assay type: functional, cell-based
[5] = biological target: T1, 5-hydroxytryptamine receptor 3A (Homo sapiens, UniProt P46098); assay type: functional
T1 sequence (P46098 whole entry): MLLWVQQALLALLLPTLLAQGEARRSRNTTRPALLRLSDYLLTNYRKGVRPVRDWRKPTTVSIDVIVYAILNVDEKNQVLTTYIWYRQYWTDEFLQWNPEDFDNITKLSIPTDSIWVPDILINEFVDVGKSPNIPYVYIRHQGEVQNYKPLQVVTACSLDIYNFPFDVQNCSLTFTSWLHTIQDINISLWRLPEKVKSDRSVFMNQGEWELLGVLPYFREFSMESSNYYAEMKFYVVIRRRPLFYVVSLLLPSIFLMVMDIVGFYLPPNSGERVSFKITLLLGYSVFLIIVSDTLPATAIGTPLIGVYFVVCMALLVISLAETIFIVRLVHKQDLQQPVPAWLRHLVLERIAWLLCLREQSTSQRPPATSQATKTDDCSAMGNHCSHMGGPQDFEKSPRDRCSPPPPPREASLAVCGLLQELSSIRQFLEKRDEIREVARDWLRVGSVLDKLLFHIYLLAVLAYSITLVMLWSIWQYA

[6] = biological target: 3',5'-cyclic-AMP phosphodiesterase 4D (Homo sapiens, UniProt Q08499); assay type: functional
[7] = biological target: Voltage-gated inwardly rectifying potassium channel KCNH2 (Homo sapiens, UniProt Q12809); assay type: functional
[8] = biological target: Gamma-aminobutyric acid receptor subunit alpha-1 (Rattus norvegicus, UniProt P62813)
Adenosine receptor A2a = Adenosine receptor A2a (Homo sapiens, UniProt P29274)
[9] = biological target: Sodium-dependent dopamine transporter (Homo sapiens, UniProt Q01959)
Glucocorticoid receptor = biological target: T2, Glucocorticoid receptor (Homo sapiens, UniProt P04150)
T2 sequence (P04150 whole entry): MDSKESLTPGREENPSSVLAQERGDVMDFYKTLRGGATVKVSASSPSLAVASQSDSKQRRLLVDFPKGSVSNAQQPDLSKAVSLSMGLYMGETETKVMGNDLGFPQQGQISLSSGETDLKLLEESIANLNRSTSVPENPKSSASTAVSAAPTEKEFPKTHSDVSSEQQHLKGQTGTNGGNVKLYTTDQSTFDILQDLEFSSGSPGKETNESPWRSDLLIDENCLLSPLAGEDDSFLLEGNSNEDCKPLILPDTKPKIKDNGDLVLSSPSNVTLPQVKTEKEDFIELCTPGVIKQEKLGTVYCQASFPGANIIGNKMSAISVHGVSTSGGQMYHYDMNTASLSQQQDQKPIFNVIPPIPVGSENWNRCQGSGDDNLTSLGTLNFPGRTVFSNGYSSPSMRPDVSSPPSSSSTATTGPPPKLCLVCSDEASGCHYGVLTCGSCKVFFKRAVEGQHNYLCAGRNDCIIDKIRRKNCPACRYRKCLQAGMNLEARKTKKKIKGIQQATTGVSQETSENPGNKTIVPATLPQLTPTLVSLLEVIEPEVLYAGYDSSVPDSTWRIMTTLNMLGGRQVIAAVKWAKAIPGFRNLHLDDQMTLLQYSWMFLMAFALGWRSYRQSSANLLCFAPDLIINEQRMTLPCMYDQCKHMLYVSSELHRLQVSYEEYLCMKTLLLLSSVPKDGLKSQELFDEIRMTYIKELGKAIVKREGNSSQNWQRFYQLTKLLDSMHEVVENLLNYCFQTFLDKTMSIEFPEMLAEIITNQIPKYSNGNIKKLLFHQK

Motilin receptor = Motilin receptor (Homo sapiens, UniProt O43193)
[10] = biological target: Beta-2 adrenergic receptor (Homo sapiens, UniProt P07550)
[11] = biological target: T3, Alpha-1A adrenergic receptor (Homo sapiens, UniProt P35348); assay type: functional, cell-based
T3 sequence (P35348 whole entry): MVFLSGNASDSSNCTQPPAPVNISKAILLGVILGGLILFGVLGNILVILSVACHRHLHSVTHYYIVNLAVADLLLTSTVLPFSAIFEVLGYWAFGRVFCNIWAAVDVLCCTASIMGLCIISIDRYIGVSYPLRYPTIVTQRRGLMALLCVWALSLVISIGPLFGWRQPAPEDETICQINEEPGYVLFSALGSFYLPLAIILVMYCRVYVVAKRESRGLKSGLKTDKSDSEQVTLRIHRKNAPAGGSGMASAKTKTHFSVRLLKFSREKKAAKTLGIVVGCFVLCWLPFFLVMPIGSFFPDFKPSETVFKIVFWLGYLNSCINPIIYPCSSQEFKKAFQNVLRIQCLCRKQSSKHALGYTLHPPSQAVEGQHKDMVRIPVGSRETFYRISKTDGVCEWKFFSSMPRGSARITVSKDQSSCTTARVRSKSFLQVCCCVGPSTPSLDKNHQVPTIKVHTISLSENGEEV

[12] = biological target: T3, Alpha-1A adrenergic receptor; assay type: functional, cell-based; remark: listed apart in the source
Note: assay procedure not described here.

Sequence of Histamine H1 receptor (P35367 whole entry): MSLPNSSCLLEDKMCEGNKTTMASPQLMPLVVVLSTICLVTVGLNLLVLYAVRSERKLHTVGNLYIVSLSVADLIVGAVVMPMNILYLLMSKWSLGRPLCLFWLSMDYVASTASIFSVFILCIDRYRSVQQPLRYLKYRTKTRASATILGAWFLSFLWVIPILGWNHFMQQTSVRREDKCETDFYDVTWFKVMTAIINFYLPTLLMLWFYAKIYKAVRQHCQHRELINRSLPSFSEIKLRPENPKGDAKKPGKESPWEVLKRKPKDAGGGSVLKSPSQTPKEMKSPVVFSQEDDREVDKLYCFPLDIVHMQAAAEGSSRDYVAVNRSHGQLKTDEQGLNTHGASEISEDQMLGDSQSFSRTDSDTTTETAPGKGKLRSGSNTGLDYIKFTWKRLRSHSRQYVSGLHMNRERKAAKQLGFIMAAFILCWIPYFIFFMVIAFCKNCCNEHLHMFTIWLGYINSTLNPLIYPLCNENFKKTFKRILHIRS
Sequence of Motilin receptor (O43193 whole entry): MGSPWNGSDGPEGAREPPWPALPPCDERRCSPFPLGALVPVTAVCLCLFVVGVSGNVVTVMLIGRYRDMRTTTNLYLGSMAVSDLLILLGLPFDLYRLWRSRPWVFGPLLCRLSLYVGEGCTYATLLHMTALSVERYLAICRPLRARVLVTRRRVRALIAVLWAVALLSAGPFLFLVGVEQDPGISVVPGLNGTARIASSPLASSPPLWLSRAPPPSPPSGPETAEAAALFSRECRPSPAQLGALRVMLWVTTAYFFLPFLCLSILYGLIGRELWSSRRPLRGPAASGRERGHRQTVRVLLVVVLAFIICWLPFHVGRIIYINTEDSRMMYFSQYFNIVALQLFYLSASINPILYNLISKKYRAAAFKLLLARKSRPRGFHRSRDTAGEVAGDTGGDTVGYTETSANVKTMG
Sequence of 3',5'-cyclic-AMP phosphodiesterase 4D (Q08499 whole entry): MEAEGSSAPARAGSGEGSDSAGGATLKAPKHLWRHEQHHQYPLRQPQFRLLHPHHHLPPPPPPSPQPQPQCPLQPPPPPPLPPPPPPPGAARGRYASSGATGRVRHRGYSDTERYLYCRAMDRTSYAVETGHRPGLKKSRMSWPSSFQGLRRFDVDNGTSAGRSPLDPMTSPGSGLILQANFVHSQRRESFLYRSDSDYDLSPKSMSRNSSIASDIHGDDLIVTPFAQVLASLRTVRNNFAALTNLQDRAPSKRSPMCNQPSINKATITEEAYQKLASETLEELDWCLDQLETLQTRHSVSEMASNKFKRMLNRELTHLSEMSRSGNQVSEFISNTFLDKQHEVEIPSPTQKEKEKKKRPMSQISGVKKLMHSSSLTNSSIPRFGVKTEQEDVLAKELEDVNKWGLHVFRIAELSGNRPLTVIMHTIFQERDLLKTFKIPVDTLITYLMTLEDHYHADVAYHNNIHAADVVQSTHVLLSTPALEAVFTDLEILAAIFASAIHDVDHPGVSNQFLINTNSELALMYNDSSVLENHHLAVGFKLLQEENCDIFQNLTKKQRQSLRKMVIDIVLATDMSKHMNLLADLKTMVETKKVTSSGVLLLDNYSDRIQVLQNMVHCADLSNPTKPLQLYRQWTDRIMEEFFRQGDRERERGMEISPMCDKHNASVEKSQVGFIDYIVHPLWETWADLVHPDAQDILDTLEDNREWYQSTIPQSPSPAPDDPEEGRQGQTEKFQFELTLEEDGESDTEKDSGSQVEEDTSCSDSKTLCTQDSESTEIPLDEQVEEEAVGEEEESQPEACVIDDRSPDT
Sequence of Voltage-gated inwardly rectifying potassium channel KCNH2 (Q12809 whole entry): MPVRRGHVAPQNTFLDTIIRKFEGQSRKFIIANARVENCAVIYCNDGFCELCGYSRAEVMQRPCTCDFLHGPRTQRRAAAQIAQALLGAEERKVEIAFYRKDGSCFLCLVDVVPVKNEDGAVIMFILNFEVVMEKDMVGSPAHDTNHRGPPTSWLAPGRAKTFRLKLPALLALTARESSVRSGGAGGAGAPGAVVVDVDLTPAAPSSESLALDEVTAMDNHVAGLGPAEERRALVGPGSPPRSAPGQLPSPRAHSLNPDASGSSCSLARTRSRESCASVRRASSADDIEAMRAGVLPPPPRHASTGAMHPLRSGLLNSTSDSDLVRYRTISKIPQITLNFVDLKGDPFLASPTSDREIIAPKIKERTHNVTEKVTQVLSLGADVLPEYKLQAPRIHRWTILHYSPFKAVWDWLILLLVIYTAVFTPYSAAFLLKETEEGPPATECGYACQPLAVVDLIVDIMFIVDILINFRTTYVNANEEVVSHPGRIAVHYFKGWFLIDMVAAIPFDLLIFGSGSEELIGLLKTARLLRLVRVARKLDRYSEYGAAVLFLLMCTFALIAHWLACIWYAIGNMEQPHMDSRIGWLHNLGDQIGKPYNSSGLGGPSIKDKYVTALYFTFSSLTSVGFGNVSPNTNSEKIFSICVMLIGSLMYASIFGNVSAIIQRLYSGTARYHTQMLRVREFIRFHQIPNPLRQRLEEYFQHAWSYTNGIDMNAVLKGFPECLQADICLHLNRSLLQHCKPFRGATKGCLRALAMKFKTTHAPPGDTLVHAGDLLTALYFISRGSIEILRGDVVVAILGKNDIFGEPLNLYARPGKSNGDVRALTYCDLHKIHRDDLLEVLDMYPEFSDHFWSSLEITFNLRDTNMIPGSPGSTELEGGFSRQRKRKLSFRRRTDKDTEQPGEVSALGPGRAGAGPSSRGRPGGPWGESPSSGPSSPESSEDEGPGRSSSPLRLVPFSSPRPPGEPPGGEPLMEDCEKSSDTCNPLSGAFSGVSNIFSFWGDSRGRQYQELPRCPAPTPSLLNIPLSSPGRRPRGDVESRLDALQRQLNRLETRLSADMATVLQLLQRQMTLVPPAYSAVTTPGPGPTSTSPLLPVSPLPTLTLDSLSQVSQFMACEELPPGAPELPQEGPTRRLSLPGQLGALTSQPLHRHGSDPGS
Sequence of Vasopressin V2 receptor (P30518 whole entry): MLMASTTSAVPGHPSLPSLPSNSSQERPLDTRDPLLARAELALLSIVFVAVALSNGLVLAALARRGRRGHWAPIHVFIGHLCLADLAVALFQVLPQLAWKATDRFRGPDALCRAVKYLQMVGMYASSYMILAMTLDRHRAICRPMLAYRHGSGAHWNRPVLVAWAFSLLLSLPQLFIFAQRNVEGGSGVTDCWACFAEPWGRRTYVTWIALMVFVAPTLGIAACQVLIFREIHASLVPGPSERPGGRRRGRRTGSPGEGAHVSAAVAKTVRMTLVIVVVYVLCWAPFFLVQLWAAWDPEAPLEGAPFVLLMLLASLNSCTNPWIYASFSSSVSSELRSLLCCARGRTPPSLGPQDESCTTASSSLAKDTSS
Sequence of Neuronal acetylcholine receptor subunit alpha-4 (P43681 whole entry): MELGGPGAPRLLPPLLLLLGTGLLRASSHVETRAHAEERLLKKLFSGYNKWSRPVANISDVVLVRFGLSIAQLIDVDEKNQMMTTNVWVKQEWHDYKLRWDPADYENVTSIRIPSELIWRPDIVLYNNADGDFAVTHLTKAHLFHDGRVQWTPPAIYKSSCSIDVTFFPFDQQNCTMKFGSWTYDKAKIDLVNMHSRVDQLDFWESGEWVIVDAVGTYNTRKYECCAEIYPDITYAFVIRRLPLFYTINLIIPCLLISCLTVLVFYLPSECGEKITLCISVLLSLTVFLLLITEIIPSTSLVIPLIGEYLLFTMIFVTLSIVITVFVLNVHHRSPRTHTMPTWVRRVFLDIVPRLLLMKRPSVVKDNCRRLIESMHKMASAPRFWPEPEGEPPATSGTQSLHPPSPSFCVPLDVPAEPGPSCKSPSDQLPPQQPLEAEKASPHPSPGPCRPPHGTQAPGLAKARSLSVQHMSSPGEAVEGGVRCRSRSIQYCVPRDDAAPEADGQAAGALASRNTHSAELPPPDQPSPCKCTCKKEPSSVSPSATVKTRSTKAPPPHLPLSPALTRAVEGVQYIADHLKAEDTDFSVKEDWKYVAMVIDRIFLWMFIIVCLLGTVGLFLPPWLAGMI
Sequence of 5-hydroxytryptamine receptor 2B (P41595 whole entry): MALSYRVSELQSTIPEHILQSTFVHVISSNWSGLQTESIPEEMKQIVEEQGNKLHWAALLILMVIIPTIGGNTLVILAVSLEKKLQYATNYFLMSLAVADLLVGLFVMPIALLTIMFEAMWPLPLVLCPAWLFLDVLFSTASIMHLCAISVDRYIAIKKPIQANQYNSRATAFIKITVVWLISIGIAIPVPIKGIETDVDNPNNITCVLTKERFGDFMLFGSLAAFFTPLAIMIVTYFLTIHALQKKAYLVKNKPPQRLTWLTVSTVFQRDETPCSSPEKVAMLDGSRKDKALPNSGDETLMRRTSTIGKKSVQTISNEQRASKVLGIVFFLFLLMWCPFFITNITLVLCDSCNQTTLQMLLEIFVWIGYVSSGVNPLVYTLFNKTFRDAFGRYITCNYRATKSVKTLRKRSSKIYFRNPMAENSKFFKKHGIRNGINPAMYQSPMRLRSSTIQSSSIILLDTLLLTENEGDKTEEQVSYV
Sequence of Histamine H2 receptor (P25021 whole entry): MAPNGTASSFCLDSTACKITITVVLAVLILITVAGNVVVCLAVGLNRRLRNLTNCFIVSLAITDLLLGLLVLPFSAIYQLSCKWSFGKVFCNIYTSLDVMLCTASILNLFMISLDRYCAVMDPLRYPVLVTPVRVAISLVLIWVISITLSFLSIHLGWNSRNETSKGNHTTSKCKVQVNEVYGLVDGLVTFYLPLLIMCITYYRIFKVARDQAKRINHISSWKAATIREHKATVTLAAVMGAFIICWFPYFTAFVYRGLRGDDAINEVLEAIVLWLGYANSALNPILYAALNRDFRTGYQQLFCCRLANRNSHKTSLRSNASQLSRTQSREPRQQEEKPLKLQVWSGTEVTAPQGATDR

AC50 (Vasopressin V2 receptor) [µM]	AC50 (Histamine H2 receptor) [µM]	AC50 [1] [µM]	AC50 [2] [µM]	AC50 (Histamine H1 receptor) [µM]	AC50 [3] [µM]	AC50 [4] [µM]	AC50 [5] [µM]	AC50 [6] [µM]	AC50 [8] [µM]	AC50 (Adenosine receptor A2a) [µM]	AC50 [9] [µM]	AC50 (Glucocorticoid receptor) [µM]	AC50 (Motilin receptor) [µM]	AC50 [10] [µM]	AC50 [11] [µM]	AC50 [12] [µM]	Compound	AC50 [7] [µM]
> 30	> 30	> 30	> 30	> 30	> 30	> 30	> 30	> 30	> 30	> 30	> 30	> 30	> 30	–	–	–	C#CCOc1ccc(N)cc1C(=O)NCCCC [PARSALMIDE]	> 30
> 30	> 10	> 30	> 10	> 10	> 10	> 10	> 30	> 30	> 10	> 30	0.845	> 30	> 10	–	–	–	OCc1cc(C(O)CNCCCCCCOCCCCc2ccccc2)ccc1O (centres undefined) [SALMETEROL]	8.1
–	–	> 30	> 10	> 10	–	–	–	> 30	–	> 30	> 30	–	–	> 10	–	–	Cn1cnc2c(F)c(Nc3ccc(Br)cc3Cl)c(C(=O)NOCCO)cc21 [SELUMETINIB]	> 30
> 30	> 30	> 30	> 30	–	> 30	> 30	> 30	> 30	–	> 30	> 30	> 30	> 30	> 30	> 30	> 30	NC1CCN(c2nc3c(cc2F)c(=O)c(C(=O)O)cn3-c2ccc(F)cc2F)C1 (centres undefined) [TOSUFLOXACIN]	> 30

— ChEMBL document CHEMBL5291721, “A preclinical secondary pharmacology resource illuminates target-adverse drug reaction associations of marketed drugs” (Nat Commun, 2023)
